Assay results from PMC7181131, “N-Pyrazinoyl Substituted Amino Acids as Potential Antimycobacterial Agents—the Synthesis and Biological Evaluation of Enantiomers” (Molecules, 2020).
In brackets after ≈: the same amount, converted by molar mass. Where two headings read alike, the source gives them in different places.

What was measured:
[1] = system: Mtb H37Ra ITM-M006710 (ATCC 9431); assay: Microplate Alamar Blue Assay (MABA) microdilution, Mtb H37Ra; type: cell-based, Mycobacterium tuberculosis; conditions: Mycobacterium tuberculosis
[2] = system: M. smegmatis DSM 43465 (ATCC 607); assay: Microplate Alamar Blue Assay (MABA) microdilution, M. smegmatis; type: cell-based, Mycobacterium smegmatis
[3] = system: Mycobacterium aurum DSM 43999 (ATCC 23366); assay: Microplate Alamar Blue Assay (MABA) microdilution, M. aurum; type: cell-based
[4] = system: Staphylococcus epidermidis CCM 4418 (ATCC 12228); assay: Antibacterial microdilution broth method, SE; type: cell-based; conditions: 24 h
[5] = system: Candida albicans CCM 8320 (ATCC 24433); assay: Antifungal microdilution broth method, CA; type: cell-based
[6] = system: Candida krusei CCM 8271 (ATCC 6258); assay: Antifungal microdilution broth method, CK; type: cell-based; conditions: Pichia kudriavzevii
[7] = system: Candida parapsilosis CCM 8260 (ATCC 22019); assay: Antifungal microdilution broth method, CP; type: cell-based; conditions: Lodderomyces parapsilosis
[8] = system: Candida tropicalis CCM 8264 (ATCC 750); assay: Antifungal microdilution broth method, CT; type: cell-based
[9] = system: Aspergillus fumigatus ATCC 204305; assay: Antifungal microdilution broth method, AF; type: cell-based
[10] = system: Aspergillus flavus CCM 8363; assay: Antifungal microdilution broth method, AFla; type: cell-based
Experimental: 6. In vitro antifungal activity screening
Antifungal activity evaluation was performed using a microdilution broth method according to EUCAST instructions (The European Committee on Antimicrobial Susceptibility Testing) with slight modifications. Eight fungal strains (four yeast and four mould strains) were used for antifungal […]
and Trichophyton interdigitale CCM 8377 (ATCC 9533). Tested strains were purchased from the Czech Collection of Microorganisms (CCM, Brno, Czech Republic) or from the American Type Collection Cultures (ATCC, Manassas, VA, USA). Tested compounds were dissolved in DMSO and diluted in a twofold manner with RPMI 1640 medium, with glutamine and 2% glucose, buffered to pH 7.0 with MOPS (3-morpholinopropane-1-sulfonic acid). The final concentration of DMSO in the testing […]
Static incubation was performed in the dark and in humid atmosphere, at 35±2 °C, for 24 and 48 h (72 and 120 h for Trichophyton interdigitale respectively). Positive controls consisted of test microbe solely, while negative controls consisted of cultivation medium and DMSO. Visual inspection and metabolic activity indicator, Alamar Blue (ThermoFisher Scientific), were used for MIC endpoint evaluation. The internal quality standards, amphotericin B (Sigma-Aldrich) and voriconazole (Toronto research Chemicals, CA) were involved in assays (for MIC of standards see Table S5). All experiments were conducted in duplicates.
For the results to be valid, the difference in MIC for one compound determined from two parallel measurements must not be greater than one step on the dilution scale.

[11] = system: Lichtheimia corymbifera CCM 8077; assay: Antifungal microdilution broth method, LC; type: cell-based
[12] = system: Trichophyton interdigitale CCM 8377 (ATCC 9533); assay: Antifungal microdilution broth method, TI; type: cell-based
[13] = system: Klebsiella pneumoniae CCM 4415 (ATCC 10031); assay: Antibacterial microdilution broth method, KP; conditions: for MIC: Klebsiella pneumoniae
[14] = pH 6.6, read-out: MIC Mtb H37Ra
[15] = pH 6, calculated from µg/mL, read-out: MIC Mtb H37Ra
[16] = Mycolicibacterium smegmatis, pH 6, read-out: MIC M. smegmatis µg/mL
[17] = Mycolicibacterium smegmatis, pH 6.6, read-out: MIC M. smegmatis
[18] = Mycolicibacterium aurum, pH 6, read-out: MIC M. aurum µg/mL
[19] = Mycolicibacterium aurum, pH 6.6, read-out: MIC M. aurum
[20] = ATCC204305, 48 h, read-out: MIC AF
[21] = CCM8363, read after 48 h (filamentous fungi), read-out: MIC AFla
[22] = CCM8077, 48 h, read-out: MIC LC
[23] = internal quality control, 530 nm, inhibition of growth of 90%, 24 h (yeasts), read-out: MIC, spectrophotometric detection
[24] = internal quality control, naked eye, no visible growth, 24 h (yeasts), read-out: MIC, visual detection
[25] = ATCC204305, internal quality control, naked eye, no visible growth, 48 h (moulds), read-out: MIC, visual detection
[26] = CCM8363, internal quality control, naked eye, no visible growth, 48 h (moulds), read-out: MIC, visual detection
[27] = CCM8077, internal quality control, naked eye, no visible growth, 48 h (moulds), read-out: MIC, visual detection
[28] = internal quality control, naked eye, no visible growth, 48 h (moulds), read-out: MIC, visual detection
[29] = 24 h, read-out: MIC, spectrophotometric detection

SMILES	MIC ([1]; pH 6) [µg/mL]	MIC ([1]; pH 6, read-out: MIC Mtb H37Ra) [µg/mL]	MIC [1, 14] [µg/mL]	MIC [1, 15] [µM]	MIC [2, 16] [µg/mL]	MIC [2, 17] [µg/mL]	MIC [3, 18] [µg/mL]	MIC [3, 19] [µg/mL]	MIC ([4]; read-out: MIC SE) [µM]	MIC ([5]; 24 h, read-out: MIC CA) [µM]	MIC ([6]; 24 h, read-out: MIC CK) [µM]	MIC ([7]; 24 h, read-out: MIC CP) [µM]	MIC ([8]; 24 h, read-out: MIC CT) [µM]	MIC [9, 20] [µM]	MIC [10, 21] [µM]	MIC [11, 22] [µM]	MIC ([12]; 48 h, read-out: MIC TI) [µM]	MIC [5, 24] [µg/mL]	MIC [6, 24] [µg/mL]	MIC [7, 24] [µg/mL]	further results
COC(=O)[C@@H](COC(C)(C)C)NC(=O)c1cnccn1 [PC-D-OtBu-Ser-Me, methyl O-(tert-butyl)-N-(pyrazine-2-carbonyl)-D-serinate]	≥ 500	≥ 500	≥ 500	≥ 1780	≥ 500	≥ 500	≥ 500	≥ 500	> 500	> 500	> 500	> 500	> 500	> 500	> 500	> 500	> 500				MIC KP ([13]; read after 24 h of incubation): > 500 µM
O=C(N[C@@H](CSCc1ccccc1)C(=O)O)c1cnccn1 [PC-L-SBn-Cys, S-benzyL-N-(pyrazine-2-carbonyl)-L-cysteine]	62.5	62.5	≥ 250	197	≥ 250	≥ 250	125 (≈ 394 µM)	≥ 250	250	> 250	> 250	> 250	> 250	> 250	> 250	> 250	> 250				
CO[C@H]1/C=C/O[C@@]2(C)Oc3c(C)c(O)c4c(O)c(c(/C=N/N5CCN(C)CC5)c(O)c4c3C2=O)NC(=O)/C(C)=C\C=C\[C@H](C)[C@H](O)[C@@H](C)[C@@H](O)[C@@H](C)[C@H](OC(C)=O)[C@@H]1C [RIF, rifampicin, reference compound]		0.0016 to 0.0062	0.0039 to 0.0078	0.0019 to 0.0075																	MIC ([2]; Mycolicibacterium smegmatis, pH 6; read-out: MIC M. smegmatis): 6.25 to 12.5 µg/mL (≈ 7.59 to 15.2 µM); MIC ([2]; Mycolicibacterium smegmatis, pH 6.6; read-out: MIC M. smegmatis): 12.5 to 25 µg/mL (≈ 15.2 to 30.4 µM); MIC ([3]; Mycolicibacterium aurum, pH 6; read-out: MIC M. aurum): 0.39 to 1.56 µg/mL (≈ 0.474 to 1.9 µM); MIC ([3]; Mycolicibacterium aurum, pH 6.6; read-out: MIC M. aurum): 0.39 to 0.78 µg/mL (≈ 0.474 to 0.948 µM)
C[C@@H]1[C@H](O)[C@@H](C)/C=C/C=C/C=C/C=C/C=C/C=C/C=C/[C@H](O[C@@H]2O[C@H](C)[C@@H](O)[C@H](N)[C@@H]2O)C[C@@H]2O[C@](O)(C[C@@H](O)C[C@@H](O)[C@H](O)CC[C@@H](O)C[C@@H](O)CC(=O)O[C@H]1C)C[C@H](O)[C@H]2C(=O)O [amphotericin B, reference compound]																		0.5	0.5	0.5	MIC [5, 23]: 0.5 µg/mL; MIC [6, 23]: 0.5 µg/mL; MIC [7, 23]: 0.5 µg/mL; MIC [8, 23]: 1 µg/mL; MIC [8, 24]: 1 µg/mL; MIC ([9]; ATCC204305, internal quality control, 530 nm, inhibition of growth of 90%, 48 h (moulds), read-out: MIC, spectrophotometric detection): 1 µg/mL; MIC [9, 25]: 1 µg/mL; MIC ([10]; CCM8363, internal quality control, 530 nm, inhibition of growth of 90%, 48 h (moulds), read-out: MIC, spectrophotometric detection): 4 µg/mL; MIC [10, 26]: 4 µg/mL; MIC ([11]; CCM8077, internal quality control, 530 nm, inhibition of growth of 90%, 48 h (moulds), read-out: MIC, spectrophotometric detection): 0.125 µg/mL; MIC [11, 27]: 0.125 µg/mL; MIC ([12]; internal quality control, 530 nm, inhibition of growth of 90%, 48 h (moulds), read-out: MIC, spectrophotometric detection): 1 µg/mL; MIC [12, 28]: 1 µg/mL
CNC(C)C1CCC(N)C(OC2C(N)CC(N)C(OC3OCC(C)(O)C(NC)C3O)C2O)O1 (stereo not drawn) [gentamicin, reference compound]																					MIC ([4]; internal quality control, 530 nm, inhibition of growth of 95%, read-out: MIC, spectrophotometric detection): 0.125 µg/mL; MIC ([4]; internal quality control, naked eye, no visible growth, read-out: MIC, visual detection): 0.125 µg/mL; MIC ([13]; 24 h, read-out: MIC, visual detection): 0.5 µg/mL (≈ 1.05 µM); MIC ([13]; ATCC10031|CCM4415, 24 h, read-out: MIC, spectrophotometric detection): 0.5 µg/mL (≈ 1.05 µM)
C[C@@H](c1ncncc1F)[C@](O)(Cn1cncn1)c1ccc(F)cc1F [voriconazole, reference compound]																		> 16	> 16	> 16	MIC [5, 29]: 0.03 µg/mL; MIC [6, 29]: 0.25 µg/mL; MIC [7, 29]: 0.03 µg/mL; MIC [8, 29]: 0.0625 µg/mL; MIC [8, 24]: > 16 µg/mL; MIC ([9]; ATCC204305, 48 h, read-out: MIC, spectrophotometric detection): 0.25 µg/mL; MIC [9, 25]: 1 µg/mL; MIC ([10]; CCM8363, 48 h, read-out: MIC, spectrophotometric detection): 1 µg/mL; MIC [10, 26]: > 16 µg/mL; MIC ([11]; CCM8077, 48 h, read-out: MIC, spectrophotometric detection): > 16 µg/mL; MIC [11, 27]: > 16 µg/mL; MIC ([12]; 48 h, read-out: MIC, spectrophotometric detection): > 16 µg/mL; MIC [12, 28]: > 16 µg/mL
